What was measured:
[1] = tested on: xylR/Pu regulation system (Pu promoter activity); experiment: Induction of Pu promoter (relative bioluminescence, luxCDABE reporter) in Acinetobacter ADP1_pu_lux_xylR; type: cell-based, Acinetobacter baylyi ADP1; conditions: for Induction of Pu promoter: ADP1_pu_lux_xylR, inducer 100 μM in LB, following 30 hrs incubation; for Induction of Pu promoter activity: strain ADPWH_Pu_lux_xylR, bioluminescence from lux genes
Protocol: Pu promoter activity was monitored by measuring relative bioluminescence (bioluminescence divided by OD600). For each measurement, at each time point 100 μl samples were analyzed in triplicate in a well of a black, clear-bottom 96-well microplate (Fisher Scientific). At OD600 and Bioluminescence were measured using a Synergy HT Multi-Detection Microplate Reader (Bio-Tek™).
A single colony of Acinetobacter sp. ADP_pu_lux_xylR was separately inoculated into 5 ml LB medium in a 30-ml glass universal tube. Toluene, o-, m-, p-xylenes, phenol, benzene, naphthalene, 2-, 3-, or 4-hydroxybenzoic, benzoate or catechol was added into LB (100 μM) to assay induction of Pu. Samples were incubated at 20, 28, 30, 34 or 37° C. with shaking at 150 rpm. Samples were repeatedly loaded on black 96-well microplate for bioluminescence and OD600 measurement for 30 hours of incubation.

[2] = tested on: salA promoter operably linked to the lux genes; conditions: LB + 6 μg/ml tetracycline + 2 mM salicylate, FIG. 11
[3] = tested on: Pu promoter activity; experiment: Catabolic repression of Pu activity in ADP1_pu_lux_xylR grown in minimal medium; type: cell-based, Acinetobacter baylyi ADP1
Protocol: Pu promoter activity was monitored by measuring relative bioluminescence (bioluminescence divided by OD600). For each measurement, at each time point 100 μl samples were analyzed in triplicate in a well of a black, clear-bottom 96-well microplate (Fisher Scientific). At OD600 and Bioluminescence were measured using a Synergy HT Multi-Detection Microplate Reader (Bio-Tek™). To examine the effect of catabolic repression Acinetobacter sp. ADP1_pu_lux_xylR was inoculated into 5 ml MM supplemented with 50 mM glucose or succinate as a sole carbon source in a 30-ml glass universal tube. […] The bacterial samples were incubated at 28° C. shaker with shaking at 150 rpm. […] For each treatment, three replicates were carried out. Samples were taken and measured for bioluminescence and OD600 every 30 min.

[4] = tested on: xylR/Pu regulation system (Pu promoter activity); experiment: Induction of Pu promoter (relative bioluminescence, luxCDABE reporter) in Acinetobacter ADP1_pu_lux_xylR; type: cell-based, Acinetobacter baylyi ADP1; conditions: ADP1_Pu_lux_xylR on LB agar with 10 mM glucose, FIG. 1B; uninduced cells remained dark

Compound | Induction of Pu promoter [1] | other results
Oc1ccccc1 [phenol] | cannot be induced | –
Oc1ccccc1O [catechol] | cannot be induced | –
Cc1ccccc1C [o-xylene] | – | Induction of Pu promoter activity [1]: can be induced
O=C(O)c1ccccc1O [2-hydroxybenzoic (salicylic acid), salicylic acid] | cannot be induced | –
O=C(O)c1ccccc1 [benzoate] | cannot be induced | –
O=C(O)c1ccc(O)cc1 [4-hydroxybenzoic] | cannot be induced | –
c1ccc2ccccc2c1 [naphthalene] | cannot be induced | –
Cc1cccc(C)c1 [m-xylene] | – | Induction of Pu promoter activity [1]: can be induced
O=C(O)c1cccc(O)c1 [3-hyroxybenzoic] | cannot be induced | –
Cc1ccccc1 [toluene] | – | Induction of Pu promoter activity [1]: can be induced
O=C(O)c1ccccc1O [salicylate] | – | Activation by salicylate, Transformant B (negative) [2]: not activated
c1ccccc1 [benzene] | cannot be induced | –
O=C(O)CCC(=O)O [succniate, succinate] | – | Repression of Pu activity by sole carbon source ([3]; minimal medium with 50 mM carbon source, toluene, m-, p- or o-xylene 500 μM as inducers, 28° C., FIG. 3A): did
6-phosphogluconic acid trisodium salt [6-phosphogluconate, reference compound] | – | Effect on Pu activity of added candidate repression signal molecule ([3]; added to MM-glucose at 0.1-300 μM after maximal induction by m-xylene, data not shown): did not affect Pu activity
xylene | – | Bioluminescence on agar medium when induced by vapors [4]: strong bioluminescence
Cc1ccc(C)cc1 [p-xylene] | – | Induction of Pu promoter activity [1]: can be induced

— patent US20100029509A1, “NOVEL METHODS” (NATURAL ENVIRONMENT RESEARCH COUNCIL, priority 2006, published 2010)
